Assay results taken from patent US20050090529A1, “3,5 Disubstituted indazole compounds with nitrogen-bearing 5-membered heterocycles, pharmaceutical compositions, and methods for mediating or inhibiting cell proliferation” (PFIZER INC, priority 2003, published 2005).

System: Cyclin-dependent kinase
Assay: Cyclin-dependent kinase inhibition, % inhibition at 10 nM (library Examples 99-270)
Format: biochemical
Conditions: 10 nM compound
Method: Cyclin-dependent kinase activity was measured by quantifying the enzyme-catalyzed, time-dependent incorporation of radioactive phosphate from [^32P]ATP or [^33P]ATP into a protein substrate. Unless noted otherwise, assays were performed in 96-well plates in a total volume of 50 μL, in the presence of 10 mM HEPES (N-[2-hydroxyethyl]piperazine-N′-[2-ethanesulfonic acid]) (pH 7.4), 10 mM MgCl2, 25 μM adenosine triphosphate (ATP), 1 mg/mL ovalbumin, 5 μg/mL leupeptin, 1 mM dithiothreitol, 10 mM beta-glycerophosphate, 0.1 mM sodium vanadate, 1 mM sodium fluoride, 2.5 mM ethylene glycol-bis(β-aminoethyl ethKer)-N,N,N′N′-tetraacetic acid (EGTA), 2% (v/v) dimethylsulfoxide, and 0.03-0.4 μCi [^32/33P]ATP per reaction. Reactions were initiated with enzyme, incubated at 30° C., and terminated after 20 minutes by the addition of ethylenediaminetetraacetic acid (EDTA) to 250 mM. The phosphorylated substrate was then captured on a nitrocellulose or phosphocellulose membrane using a 96-well filtration manifold, and unincorporated radioactivity was removed by repeated washing with 0.85% phosphoric acid. Radioactivity was quantified by exposing the dried membranes to a phosphorimager.
Results of assays performed on compounds, which include the specific examples described above are provided in Examples 99-274 above, and in Table 1 below. Unless indicated otherwise in a particular entry, the units and assays used are as indicated in the applicable column of the table.

Row | % Inhib @ 10 nM [%] | SMILES
1 | 67 | CCNCc1cncc(-c2ccc3[nH]nc(-c4ncc(C(=O)NC5CCC5)[nH]4)c3c2)c1C [Example 135, N-cyclobutyl-2-(5-{5-[(ethylamino)methyl]-4-methylpyridin-3-yl}-1H-indazol-3-yl)-1H-imidazole-5-carboxamide]
2 | 72 | CCNCc1cncc(-c2ccc3[nH]nc(-c4ncc(C(=O)NCC(F)(F)F)[nH]4)c3c2)c1C [Example 136, 2-(5-{5-[(ethylamino)methyl]-4-methylpyridin-3-yl}-1H-indazol-3-yl)-N-(2,2,2-trifluoroethyl)-1H-imidazole-5-carboxamide]
3 | 37 | CCNCc1cncc(-c2ccc3[nH]nc(-c4ncc(C(=O)N(C)C5CCN(C)C5)[nH]4)c3c2)c1C (stereo not drawn) [Example 137, 2-(5-{5-[(ethylamino)methyl]-4-methylpyridin-3-yl}-1H-indazol-3-yl)-N-methyl-N-(1-methylpyrrolidin-3-yl)-1H-imidazole-5-carboxamide]
4 | 79 | CCNCc1cncc(-c2ccc3[nH]nc(-c4ncc(C(=O)N5CCCC5)[nH]4)c3c2)c1C [Example 138, ethyl[(4-methyl-5-{3-[5-(pyrrolidin-1-ylcarbonyl)-1H-imidazol-2-yl]-1H-indazol-5-yl}pyridin-3-yl)methyl]amine]
5 | 64 | CCNCc1cncc(-c2ccc3[nH]nc(-c4ncc(C(=O)NC5(CO)CCCC5)[nH]4)c3c2)c1C [Example 139, 2-(5-{5-[(ethylamino)methyl]-4-methylpyridin-3-yl}-1H-indazol-3-yl)-N-[1-(hydroxymethyl)cyclopentyl]-1H-imidazole-5-carboxamide]
6 | 31 | CCNCc1cncc(-c2ccc3[nH]nc(-c4ncc(C(=O)N[C@H](CO)Cc5c[nH]c6ccccc56)[nH]4)c3c2)c1C [Example 140, 2-(5-{5-[(ethylamino)methyl]-4-methylpyridin-3-yl}-1H-indazol-3-yl)-N-[(1S)-2-hydroxy-1-(1H-indol-3-ylmethyl)ethyl]-1 H-imidazole-5-carboxamide]
7 | 71 | CCNCc1cncc(-c2ccc3[nH]nc(-c4ncc(C(=O)N5CCC(O)(Cc6ccccc6)CC5)[nH]4)c3c2)c1C [Example 141, 4-benzyl-1-{[2-(5-{5-[(ethylamino)methyl]-4-methylpyridin-3-yl}-1H-indazol-3-yl)-1H-imidazol-5-yl]carbonyl}pipendin-4-ol]
8 | 65 | CCNCc1cncc(-c2ccc3[nH]nc(-c4ncc(C(=O)N5CCC(C(=O)c6ccc(F)cc6)CC5)[nH]4)c3c2)c1C [Example 142, (1-{[2-(5-{5-[(ethylamino)methyl]-4-methylpyridin-3-yl}-1H-indazol-3-yl)-1H-imidazol-5-yl]carbonyl}piperidin-4-yl)(4-fluorophenyl)methanone]
9 | 78 | CCNCc1cncc(-c2ccc3[nH]nc(-c4ncc(C(=O)NC5CCCCC5)[nH]4)c3c2)c1C [Example 143, N-cyclohexyl-2-(5-{5-[(ethylamino)methyl]-4-methylpyridin-3-yl}-1H-indazol-3-yl)-1H-imidazole-5-carboxamide]
10 | 30 | CCNCc1cncc(-c2ccc3[nH]nc(-c4ncc(C(=O)N5CCN(c6ccncc6)CC5)[nH]4)c3c2)c1C [Example 144, ethyl{[4-methyl-5-(3-{5-[(4-pyridin-4-ylpiperazin-1-yl)carbonyl]-1H-imidazol-2-yl}-1H-indazol-5-yl)pyridin-3-yl]methyl}amine]
11 | 58 | CCNCc1cncc(-c2ccc3[nH]nc(-c4ncc(C(=O)N5CCN(c6cnccn6)CC5)[nH]4)c3c2)c1C [Example 145]
12 | 22 | C=CCN(CC=C)CCN1CCN(C(=O)c2cnc(-c3n[nH]c4ccc(-c5cncc(CNCC)c5C)cc34)[nH]2)CC1 [Example 146, diallyl[2-(4-{[2-(5-{5-[(ethylamino)methyl]-4.-methylpyridin-3-yl}-1H-indazol-3-yl)-1H-imidazol-5-yl]carbonyl}piperazin-1-yl)ethyl]amine]
13 | 69 | CCNCc1cncc(-c2ccc3[nH]nc(-c4ncc(C(=O)N5CCN(c6ccccc6C#N)CC5)[nH]4)c3c2)c1C [Example 147]
14 | 60 | CCNCc1cncc(-c2ccc3[nH]nc(-c4ncc(C(=O)NCc5ccc(F)c(C(F)(F)F)c5)[nH]4)c3c2)c1C [Example 148]
15 | 69 | CCNCc1cncc(-c2ccc3[nH]nc(-c4ncc(C(=O)N5CCC6CCCCC6C5)[nH]4)c3c2)c1C (stereo not drawn) [Example 149, ethyl[(4-methyl-5-{3-[5-(octahydroisoquinolin-2(1H)-ylcarbonyl)-1H-imidazol-2-yl]-1H-indazol-5-yl}pyridin-3-yl)methyl]amine]
16 | 67 | CCNCc1cncc(-c2ccc3[nH]nc(-c4ncc(C(=O)NC)[nH]4)c3c2)c1C [Example 151, 2-(5-{5-[(ethylamino)methyl]-4-methylpyridin-3-yl}-1H-indazol-3-yl)-N-methyl-1H-imidazole-5-carboxamide]
17 | 67 | CCNCc1cncc(-c2ccc3[nH]nc(-c4ncc(C(=O)N5CCOCC5)[nH]4)c3c2)c1C [Example 152, ethyl[(4-methyl-5-{3-[5-(morpholin-4-ylcarbonyl)-1H-imidazol-2-yl]-1H-indazol-5-yl}pyridin-3-yl)methyl]amine]
18 | 70 | CCNCc1cncc(-c2ccc3[nH]nc(-c4ncc(C(=O)NCCO)[nH]4)c3c2)c1C [Example 153, 2-(5-{5-[(ethylamino)methyl]-4-methylpyridin-3-yl}-1H-indazol-3-yl)-N-(2-hydroxyethyl)-1H-imidazole-5-carboxamide]
19 | 37 | CCNCc1cncc(-c2ccc3[nH]nc(-c4ncc(C(=O)NCCSCc5ccc(CN(C)C)o5)[nH]4)c3c2)c1C [Example 155, N-{2-[({5-[(dimethylamino)methyl]-2-furyl}methyl)thio]ethyl}-2-(5-{5-[(ethylamino)methyl]-4-methylpyridin-3-yl}-1H-indazol-3-yl)-1H-imidazoie-5-carboxamide]
20 | 25 | CCNCc1cncc(-c2ccc3[nH]nc(-c4ncc(C(=O)N(C)CCN(C)C)[nH]4)c3c2)c1C [Example 156]
21 | 28 | CCNCc1cncc(-c2ccc3[nH]nc(-c4ncc(C(=O)NC/C=C(\C)CCC=C(C)C)[nH]4)c3c2)c1C [Example 157]
22 | 56 | CCNCc1cncc(-c2ccc3[nH]nc(-c4ncc(C(=O)NC5Cc6ccccc6C5)[nH]4)c3c2)c1C [Example 158, N-(2,3-dihydro-1H-inden-2-yl)-2-(5-{5-[(ethylamino)methyl]-4-methylpyridin-3-yl}-1H-indazol-3-yl)-1H-imidazole-5-carboxamide]
23 | 28 | CCNCc1cncc(-c2ccc3[nH]nc(-c4ncc(C(=O)NCc5ccc(CN(C)C)cc5)[nH]4)c3c2)c1C [Example 159, N-{4[(dimethylamino)methyl]benzyl}-2-(5-{5-[(ethylamino)methyl]-4-methylpyridin-3-yl}-1H-indazol-3-yl)-1H-imidazole-5-carboxamide]
24 | 48 | CCNCc1cncc(-c2ccc3[nH]nc(-c4ncc(C(=O)NC(Cc5cc(C)no5)C5CC5)[nH]4)c3c2)c1C (stereo not drawn) [Example 160, N-[1-cyclopropyl-2-(3-methylisoxazol-5-yl)ethyl]-2-(5-{5-[(ethylamino)methyl]-4-methylpyridin-3-yl}-1H-indazol-3-yl)-1H-imidazole-5-carboxamide]
25 | 48 | CCNCc1cncc(-c2ccc3[nH]nc(-c4ncc(C(=O)NCCc5c[nH]cn5)[nH]4)c3c2)c1C [Example 161, 2-(5-{5-[(ethylamino)methyl]-4-methylpyridin-3yl-1H-indazol-3yl)-N-2-(1H-imidazol-4-yl)ethyl]-1H-imidazole-5-carboxamide]
26 | 81 | CCNCc1cncc(-c2ccc3[nH]nc(-c4ncc(C(=O)N[C@H]5CCc6ccccc65)[nH]4)c3c2)c1C [Example 162]
27 | 60 | CCNCc1cncc(-c2ccc3[nH]nc(-c4ncc(C(=O)N5CCSCC5)[nH]4)c3c2)c1C [Example 163, ethyl[(4-methyl-5-{3-[5-(thiomorpholin-4-ylcarbonyl)-1H-imidazol-2-yl]-1H-indazol-5-yl}pyridin-3-yl)methyl]amine]
28 | 69 | CCCCN(CCC#N)C(=O)c1cnc(-c2n[nH]c3ccc(-c4cncc(CNCC)c4C)cc23)[nH]1 [Example 164, N-butyl-N-(2-cyanoethyl)-2-(5-{5-[(ethylamino)methyl]4-methylpyridin-3-yl}-1H-indazol-3-yl)-1H-imidaole-5-carboxamide]
29 | 37 | CCNCc1cncc(-c2ccc3[nH]nc(-c4ncc(C(=O)N(C)CCc5ccc(OC)c(OC)c5)[nH]4)c3c2)c1C [Example 165, N-[2-(3,4-dimethoxyphenyl)ethyl]-2-(5-{5-[(ethylamino)methyl]-4-methylpyridin-3-yl}-1H-indazol-3-yl)-N-methyl-1H-imidazole-5-carboxamide]

Row | SMILES | % Inhib @ 10 nM [%]
30 | CCNCc1cncc(-c2ccc3[nH]nc(-c4ncc(C(=O)NCCC#N)[nH]4)c3c2)c1C [Example 154, N-(2-cyanoethyl)-2-(5-{5-[(ethylamino)methyl]-4-methylpyridin-3-yl}-1H-indazxol-3-yl)-1H-imidazole-5-carboxamide] | 71
